≈ marks a conversion by molar mass, not a printed value. Read-outs that look alike come from different tables or passages of the source.
What was measured:
Format in all cases: cell-based
[1] = tested on: Staphylococcus saprophyticus; experiment: MIC, CLSI broth microdilution, clinical isolates; conditions: Staphylococcus saprophyticus (N = 101)
[2] = tested on: Viridans streptococci; experiment: MIC, CLSI broth microdilution, clinical isolates; conditions: Viridans streptococci (N = 156)
[3] = tested on: Citrobacter koseri; experiment: MIC, CLSI broth microdilution, clinical isolates; conditions: Citrobacter koseri (N = 100)
[4] = tested on: Staphylococcus haemolyticus; experiment: MIC, CLSI broth microdilution, clinical isolates; conditions: Staphylococcus haemolyticus (N = 101)
[5] = tested on: Streptococcus pyogenes; experiment: MIC, CLSI broth microdilution, clinical isolates; conditions: Streptococcus pyogenes (N = 101)
[6] = tested on: Morganella morganii; experiment: MIC, CLSI broth microdilution, clinical isolates; conditions: Morganella morganii (N = 51)
[7] = tested on: Legionella pneumophila; experiment: microbe, parasite or virus in culture
[8] = tested on: Staphylococcus epidermidis; experiment: MIC, CLSI broth microdilution, clinical isolates; conditions: for MIC50: Staphylococcus epidermidis
[9] = tested on: Streptococcus agalactiae; experiment: MIC, CLSI broth microdilution, clinical isolates; conditions: Streptococcus agalactiae (N = 100)
[10] = tested on: Staphylococcus warneri; experiment: MIC, CLSI broth microdilution, clinical isolates; conditions: Staphylococcus warneri (N = 50)
[11] = tested on: Staphylococcus hominis; experiment: MIC, CLSI broth microdilution, clinical isolates; conditions: Staphylococcus hominis (N = 50)
[12] = tested on: Staphylococcus aureus; experiment: MIC, CLSI broth microdilution, clinical isolates; conditions: for MIC50 / MIC90: Staphylococcus aureus
[13] = tested on: Haemophilus influenzae; experiment: MIC, CLSI broth microdilution, clinical isolates; conditions: for MIC50 / MIC90: Haemophilus influenzae
[14] = tested on: Lancefield group C, F, G streptococci; experiment: MIC, CLSI broth microdilution, clinical isolates; conditions: G streptococci (N = 50)
[15] = tested on: Klebsiella oxytoca; experiment: MIC, CLSI broth microdilution, clinical isolates; conditions: Klebsiella oxytoca (N = 50)
[16] = tested on: Streptococcus pneumoniae; experiment: MIC, CLSI broth microdilution, clinical isolates
[17] = tested on: Moraxella catarrhalis; experiment: MIC, CLSI broth microdilution, clinical isolates; conditions: Moraxella catarrhalis (N = 101)
[18] = tested on: Staphylococcus lugdunensis; experiment: MIC, CLSI broth microdilution, clinical isolates; conditions: Staphylococcus lugdunensis (N = 15)
[19] = Staphylococcus epidermidis (CNS, N = 6)
[20] = Staphylococcus epidermidis (CS, N = 9)
[21] = Staphylococcus epidermidis (MRSE, N = 9)
[22] = Staphylococcus epidermidis (MSSE, N = 6)
[23] = Staphylococcus epidermidis (all phenotypes, N = 15)
[24] = Staphylococcus aureus (CNS, N = 16)
[25] = Staphylococcus aureus (CS, N = 14)
[26] = Staphylococcus aureus (MSSA, N = 19)
[27] = Staphylococcus aureus (all phenotypes, N = 30)
[28] = MRSA, Staphylococcus aureus (MRSA, N = 11)
[29] = MSSA, Staphylococcus aureus (MSSA, N = 19)
[30] = Haemophilus influenzae (all phenotypes, N = 40)
[31] = Haemophilus influenzae (bla negative, N = 24)
[32] = Haemophilus influenzae (bla positive, N = 16)
[33] = Streptococcus pneumoniae (PSSP, N = 31)

`NC[C@H]1O[C@H](O[C@H]2[C@H](O)[C@@H](O[C@H]3O[C@H](CO)[C@@H](O)[C@H](N)[C@H]3O)[C@H](N)C[C@@H]2N)[C@H](N)C[C@@H]1O` [Tobramycin] was tested, and the “% S” value [1] was 99.0%, the MIC50 [1] was 0.015 mg/L (≈ 0.0321 µM) and the MIC90 [1] was 0.06 mg/L (≈ 0.128 µM). For the same molecule, the “MIC Range” value [1] was “≦0.008-32 μg/mL”, the “MIC Range” value [2] was 0.5 to 128 mg/L and the MIC50 ([2]; read-out: MIC50) was 16 mg/L (≈ 34.2 µM). The MIC90 ([2]; read-out: MIC90) was 32 mg/L (≈ 68.4 µM), the “% S” value [3] was 99.0% and the MIC50 [3] was 0.5 mg/L (≈ 1.07 µM). The MIC90 [3] was 1 mg/L (≈ 2.14 µM), the “MIC Range” value [3] was 0.25 to 16 mg/L and the “% S” value [4] was 64.4%. For the same molecule, the MIC50 [4] was 2 mg/L (≈ 4.28 µM), the MIC90 [4] was 32 mg/L (≈ 68.4 µM) and the “MIC Range” value [5] was 4 to 64 mg/L. For the same molecule, the MIC50 ([5]; read-out: MIC50) was 16 mg/L (≈ 34.2 µM), the MIC90 ([5]; read-out: MIC90) was 16 mg/L (≈ 34.2 µM) and the “% S” value [6] was 90.2%. The MIC50 [6] was 1 mg/L (≈ 2.14 µM), the MIC90 [6] was 4 mg/L (≈ 8.56 µM) and the “MIC Range” value [6] was 0.25 to 32 mg/L. The MIC50 ([7]; Legionella pneumophila) was 1 mg/L (≈ 2.14 µM), the MIC90 ([7]; Legionella pneumophila) was 2 mg/L (≈ 4.28 µM) and the “MIC Range” value ([7]; Legionella pneumophila (N = 50)) was 0.25 to 4 mg/L. The “% S” value [8, 19] was 83.3%, the “MIC Range” value [8, 19] was 0.06 to 16 mg/L and the “% S” value [8, 20] was 88.9%. The “MIC Range” value [8, 20] was “≦0.008-8 μg/mL”, the “% S” value [8, 21] was 77.8% and the “MIC Range” value [8, 21] was 0.03 to 16 mg/L. The “% S” value [8, 22] was 100.0%, the “MIC Range” value [8, 22] was “≦0.008-0.06 μg/mL” and the “% S” value [8, 23] was 86.7%. The MIC90 [8, 23] was 8 mg/L (≈ 17.1 µM), the “MIC Range” value [8, 23] was “≦0.008-16 μg/mL” and the MIC50 ([8]; MRSE, Staphylococcus epidermidis (MRSE, N = 9)) was 4 mg/L (≈ 8.56 µM). It also gave an MIC50 [8, 19] of 2 mg/L (≈ 4.28 µM), an MIC50 [8, 20] of 0.03 mg/L (≈ 0.0642 µM) and an MIC50 [8, 22] of 0.03 mg/L (≈ 0.0642 µM). The MIC50 [8, 23] was 0.06 mg/L (≈ 0.128 µM), the MIC50 ([9]; read-out: MIC50) was 32 mg/L (≈ 68.4 µM) and the MIC90 ([9]; read-out: MIC90) was 64 mg/L (≈ 137 µM). For the same molecule, the “% S” value [10] was 86.0%, the MIC50 [10] was 0.06 mg/L (≈ 0.128 µM) and the MIC90 [10] was 8 mg/L (≈ 17.1 µM). For the same molecule, the “% S” value [11] was 32.0%, the MIC50 [11] was 16 mg/L (≈ 34.2 µM) and the MIC90 [11] was 32 mg/L (≈ 68.4 µM). The “% S” value [12, 24] was 68.8%, the “% S” value [12, 25] was 92.9% and the “MIC Range” value [12, 25] was 0.12 to 8 mg/L. The “% S” value ([12]; Staphylococcus aureus (MRSA, N = 11)) was 54.5%, the “% S” value [12, 26] was 94.7% and the “MIC Range” value [12, 26] was 0.12 to 8 mg/L. The “% S” value [12, 27] was 80.0%, the MIC50 [12, 28] was 1 mg/L (≈ 2.14 µM) and the MIC90 [12, 28] was greater than 32 mg/L. The MIC50 [12, 29] was 0.25 mg/L (≈ 0.535 µM), the MIC90 [12, 29] was 1 mg/L (≈ 2.14 µM) and the MIC50 [12, 24] was 0.5 mg/L (≈ 1.07 µM). It also gave an MIC90 [12, 24] greater than 32 mg/L, an MIC50 [12, 25] of 0.25 mg/L (≈ 0.535 µM) and an MIC90 [12, 25] of 1 mg/L (≈ 2.14 µM). For the same molecule, the MIC50 [12, 27] was 0.5 mg/L (≈ 1.07 µM), the MIC90 [12, 27] was greater than 32 mg/L and the “MIC Range” value [13, 30] was 0.06 to 4 mg/L. For the same molecule, the “MIC Range” value [13, 31] was 0.06 to 4 mg/L, the “MIC Range” value [13, 32] was 0.5 to 4 mg/L and the MIC50 [13, 30] was 2 mg/L (≈ 4.28 µM). It also gave an MIC90 [13, 30] of 4 mg/L (≈ 8.56 µM), an MIC50 [13, 31] of 2 mg/L (≈ 4.28 µM) and an MIC90 [13, 31] of 4 mg/L (≈ 8.56 µM). For the same molecule, the MIC50 [13, 32] was 2 mg/L (≈ 4.28 µM), the MIC90 [13, 32] was 2 mg/L (≈ 4.28 µM) and the “MIC Range” value [14] was 2 to 32 mg/L. For the same molecule, the MIC50 ([14]; read-out: MIC50) was 8 mg/L (≈ 17.1 µM), the MIC90 ([14]; read-out: MIC90) was 16 mg/L (≈ 34.2 µM) and the “% S” value [15] was 96.0%. The MIC50 [15] was 0.5 mg/L (≈ 1.07 µM), the MIC90 [15] was 1 mg/L (≈ 2.14 µM) and the “MIC Range” value [15] was 0.25 to 8 mg/L. For the same molecule, the “MIC Range” value ([16]; Streptococcus pneumoniae (PISP, N = 2)) was 16 to 32 mg/L, the “MIC Range” value ([16]; Streptococcus pneumoniae (PRSP, N = 2)) was 16 to 32 mg/L and the MIC50 [16, 33] was 16 mg/L (≈ 34.2 µM). For the same molecule, the MIC90 [16, 33] was 32 mg/L (≈ 68.4 µM), the “MIC Range” value [16, 33] was 8 to 32 mg/L and the “MIC Range” value ([16]; Streptococcus pneumoniae (all phenotypes, N = 35)) was 8 to 32 mg/L. For the same molecule, the MIC50 ([16]; Streptococcus pneumoniae (all phenotypes, N = 35), read-out: MIC50) was 16 mg/L (≈ 34.2 µM), the MIC90 ([16]; Streptococcus pneumoniae (all phenotypes, N = 35), read-out: MIC90) was 32 mg/L (≈ 68.4 µM) and the MIC50 [17] was 0.25 mg/L (≈ 0.535 µM). The MIC90 [17] was 0.25 mg/L (≈ 0.535 µM), the “MIC Range” value [17] was 0.03 to 0.5 mg/L and the “% S” value [18] was 60.0%. The MIC50 [18] was 0.12 mg/L (≈ 0.257 µM) and the MIC90 [18] was 32 mg/L (≈ 68.4 µM).

— patent US8415342B2, “Besifloxacin ophthalmic composition for the treatment or control of infection” (Bausch & Lomb Incorporated, priority 2008, dated 2013)
